Data as given in patent US8841343B2, “Composition for repelling mosquitoes” (Bio & Hnt, Inc., priority 2006, dated 2014).
Where “and” joins values, the source holds several entries; their conditions need not be identical. Equal values may be shown once.

Test system: Aedes aegypti
Experiment: Examination of repellent activity using skin test (treated human forearm in cage of about 100 mated female mosquitoes)
Assay type: in vivo
Conditions: for Effective repellency duration (hour) (mean ± standard deviation): maximum measurement time 12 hours
Description: Citronellic acid and geranic acid, which are used in the present invention, are commercially available or can directly be synthesized. In this embodiment, products of Aldrich Co. (product names are respectively Citronellic acid and Geranic acid) were purchased and used as citronellic acid and geranic acid. Purities of the above two compounds were examined using a gas chromatograph (GC) and a gas chromatograph-mass spectrometry (GC-MS). The compounds having purity of 99.5% or greater were only used. Respective ingredients of the above compounds were added to isopropyl alcohol of 91% to make test samples consisting of a solution in the concentration of 0.5 to 50%. The samples were used for mosquito repellent efficacy experiments.
The test samples manufactured as above underwent repellent effective experiments with respect to Aedes which is a main mosquito group attacking human.
In this embodiment, Aedes aegypti was used as test mosquitoes. The Aedes aegypti was supplied from Korea Research Institute of Bioscience and Biotechnology and reared indoor from generation to generation.
The larvae of the Aedes aegypti were reared in a plastic container of 22×14×7 cm containing distilled water with small amount of one-to-one mixture of chicken feed and yeast. Fresh mosquito pupae were transferred into a paper cup containing water and then placed in a transparent rearing cage to emerge as adults. Here, the rearing cage was constructed with metal net. Males and females of the freshly emerged mosquitoes were transferred to a rearing cage at one-to-one ratio, and left for two or three days for mating. The female mosquitoes were then used for repellency tests. Eight percent (8%) sugar water was supplied for the adult mosquitoes. The following rearing conditions were maintained: light condition of 16 h:8 h (day:night), temperature of 27±2° C., and relative humidity of 80±10%.
In order to examine effectiveness of the mosquito repellent of the prepared sample solutions, one (1) ml of a sample solution was uniformly applied, using a metal rod, on a forearm of a volunteer human test subject between wrist and elbow. Thereafter, the arm treated with the test solution was inserted in a bioassay cage, constructed with Plexiglass of 50×50×50 cm containing approximately 100 mated female mosquitoes. The number of mosquitoes trying to bite was recorded for three minutes in every thirty minutes for up to 4 hours or in every hour for up to 12 hours. The time required to get the arm bitten by two cumulative mosquitoes was regarded as effective repellency duration. A net window of 40×40 cm was present at each side and top of the Plexiglass bioassay cage to allow air ventilation. A 15×15 cm hole was prepared at the front side of the Plexiglass bioassay cage and a long net sleeve was attached to the hole so that the test arm could be put into the cage for repellency test.
At the beginning of each repellency test, an arm treated with no solvent was placed in the bioassay cage containing mosquitoes, in order to examine blood feeding activity of the mated female test mosquitoes. The repellency tests with the test solutions were carried out only when the arm was bitten by at least two mosquitoes for initial three minutes.
Repellent activity against Aedes was examined in accordance with the aforementioned method using the samples which respectively contain citronellic acid and geranic acid. Also, mosquito repellent activity was measured with solutions which contain DEET and Picadirin, wherein the DEET and Picadirin are commercially available mosquito repellents which are currently recommended by the Center for Disease Control of the United States.
In Table 4 to Table 6, the repellent efficiency was calculated using the following Equation 1.

[1] = 10% (0.25 mg/cm^3), 120 minutes
[2] = 10% (0.25 mg/cm^3), 150 minutes
[3] = 10% (0.25 mg/cm^3), 180 minutes
[4] = 10% (0.25 mg/cm^3), 210 minutes
[5] = 10% (0.25 mg/cm^3), 240 minutes
[6] = concentration 2% (0.05 mg/cm^3), time until arm bitten by two cumulative mosquitoes
[7] = concentration 10% (0.25 mg/cm^3), time until two cumulative bites, maximum measurement time 240 minutes

## CC(C)=CCCC(C)CC(=O)O (racemic) [Citronellic acid, citronellic acid]
2% (0.05 mg/cm^3), 30 minutes
  Repellent efficiency (%) per time (minutes): 100%
2% (0.05 mg/cm^3), 60 minutes
  Repellent efficiency (%) per time (minutes): 84.7%
2% (0.05 mg/cm^3), 90 minutes
  Repellent efficiency (%) per time (minutes): 71.3%
2% (0.05 mg/cm^3), 120 minutes
  Repellent efficiency (%) per time (minutes): 56.4%
2% (0.05 mg/cm^3), 150 minutes
  Repellent efficiency (%) per time (minutes): 37.8%
2% (0.05 mg/cm^3), 180 minutes
  Repellent efficiency (%) per time (minutes): 15.2%
2% (0.05 mg/cm^3), 210 minutes
  Repellent efficiency (%) per time (minutes): 7.4%
2% (0.05 mg/cm^3), 240 minutes
  Repellent efficiency (%) per time (minutes): 0%
10% (0.25 mg/cm^3), 30 minutes
  Repellent efficiency (%) per time (minutes): 100%
10% (0.25 mg/cm^3), 60 minutes
  Repellent efficiency (%) per time (minutes): 100%
10% (0.25 mg/cm^3), 90 minutes
  Repellent efficiency (%) per time (minutes): 100%
[1]
  Repellent efficiency (%) per time (minutes): 100%
[2]
  Repellent efficiency (%) per time (minutes): 100%
[3]
  Repellent efficiency (%) per time (minutes): 85.7%
[4]
  Repellent efficiency (%) per time (minutes): 71.4%
[5]
  Repellent efficiency (%) per time (minutes): 57.1%
15% (0.375 mg/cm^3), 1 hour
  Repellent efficiency (%) per time (hours): 100%
15% (0.375 mg/cm^3), 2 hours
  Repellent efficiency (%) per time (hours): 75%
15% (0.375 mg/cm^3), 3 hours
  Repellent efficiency (%) per time (hours): 75%
15% (0.375 mg/cm^3), 4 hours
  Repellent efficiency (%) per time (hours): 75%
15% (0.375 mg/cm^3), 5 hours
  Repellent efficiency (%) per time (hours): 50%
15% (0.375 mg/cm^3), 6 hours
  Repellent efficiency (%) per time (hours): 50%
15% (0.375 mg/cm^3), 7 hours
  Repellent efficiency (%) per time (hours): 37.5%
15% (0.375 mg/cm^3), 8 hours
  Repellent efficiency (%) per time (hours): 37.5%
15% (0.375 mg/cm^3), 9 hours
  Repellent efficiency (%) per time (hours): 25%
30% (0.75 mg/cm^3), 1 hour
  Repellent efficiency (%) per time (hours): 100%
30% (0.75 mg/cm^3), 2 hours
  Repellent efficiency (%) per time (hours): 87.5%
30% (0.75 mg/cm^3), 3 hours
  Repellent efficiency (%) per time (hours): 75%
30% (0.75 mg/cm^3), 4 hours
  Repellent efficiency (%) per time (hours): 75%
30% (0.75 mg/cm^3), 5 hours
  Repellent efficiency (%) per time (hours): 75%
30% (0.75 mg/cm^3), 6 hours
  Repellent efficiency (%) per time (hours): 62.5%
30% (0.75 mg/cm^3), 7 hours
  Repellent efficiency (%) per time (hours): 62.5%
30% (0.75 mg/cm^3), 8 hours
  Repellent efficiency (%) per time (hours): 62.5%
30% (0.75 mg/cm^3), 9 hours
  Repellent efficiency (%) per time (hours): 62.5%
30% (0.75 mg/cm^3), 10 hours
  Repellent efficiency (%) per time (hours): 50%
30% (0.75 mg/cm^3), 11 hours
  Repellent efficiency (%) per time (hours): 50%
30% (0.75 mg/cm^3), 12 hours
  Repellent efficiency (%) per time (hours): 50%
50% (1.25 mg/cm^3), 1 hour
  Repellent efficiency (%) per time (hours): 100%
50% (1.25 mg/cm^3), 2 hours
  Repellent efficiency (%) per time (hours): 100%
50% (1.25 mg/cm^3), 3 hours
  Repellent efficiency (%) per time (hours): 100%
50% (1.25 mg/cm^3), 4 hours
  Repellent efficiency (%) per time (hours): 100%
50% (1.25 mg/cm^3), 5 hours
  Repellent efficiency (%) per time (hours): 93.3%
50% (1.25 mg/cm^3), 6 hours
  Repellent efficiency (%) per time (hours): 86.7%
50% (1.25 mg/cm^3), 7 hours
  Repellent efficiency (%) per time (hours): 86.7%
50% (1.25 mg/cm^3), 8 hours
  Repellent efficiency (%) per time (hours): 86.7%
50% (1.25 mg/cm^3), 9 hours
  Repellent efficiency (%) per time (hours): 80%
50% (1.25 mg/cm^3), 10 hours
  Repellent efficiency (%) per time (hours): 73.3%
50% (1.25 mg/cm^3), 11 hours
  Repellent efficiency (%) per time (hours): 73.3%
50% (1.25 mg/cm^3), 12 hours
  Repellent efficiency (%) per time (hours): 73.3%
At the level of 0.0125 mg/cm^3
  repellency (in words): did not represent any repellency
At the level of 0.05 mg/cm^3
  time for which repellent efficiency of 100% was shown: 30 min
At the level of 0.25 mg/cm^3
  time for which repellent efficiency of 100% was shown: 150 min
Concentration 0.5% (0.0125 mg/cm^3), time until arm bitten by two cumulative mosquitoes
  Effective repellency duration (minute) (mean ± standard deviation): 0 ± 0 min
[6]
  Effective repellency duration (minute) (mean ± standard deviation): 60 ± 0 min
[7]
  Effective repellency duration (minute) (mean ± standard deviation): 240 ± 0 min
Concentration 10% (0.25 mg/cm^3), time until two cumulative bites, maximum measurement time 240 minutes, listed as citronellic acid
  Effective repellency duration (minute) (mean ± standard deviation): 240 min
Concentration 15% (0.375 mg/cm^3)
  Effective repellency duration (hour) (mean ± standard deviation): 5.7 ± 2.03 h
Concentration 30% (0.75 mg/cm^3)
  Effective repellency duration (hour) (mean ± standard deviation): 9.3 ± 1.76 h
Concentration 30% (0.75 mg/cm^3), listed as citronellic acid
  Effective repellency duration (hour) (mean ± standard deviation): 9.3 h
Concentration 50% (1.25 mg/cm^3)
  Effective repellency duration (hour) (mean ± standard deviation): 9.3 ± 1.76 h
Concentration 50% (1.25 mg/cm^3), listed as citronellic acid
  Effective repellency duration (hour) (mean ± standard deviation): 9.3 h
For 8 hours at the level of 1.25 mg/cm^3
  repellent efficiency: ~90%

## CCN(CC)C(=O)c1cccc(C)c1 [DEET, N,N-diethyl-m-toluamide, reference compound]
2% (0.05 mg/cm^3), 30 minutes
  Repellent efficiency (%) per time (minutes): 100%
2% (0.05 mg/cm^3), 60 minutes
  Repellent efficiency (%) per time (minutes): 0%
2% (0.05 mg/cm^3), 90 minutes
  Repellent efficiency (%) per time (minutes): 0%
2% (0.05 mg/cm^3), 120 minutes
  Repellent efficiency (%) per time (minutes): 0%
2% (0.05 mg/cm^3), 150 minutes
  Repellent efficiency (%) per time (minutes): 0%
2% (0.05 mg/cm^3), 180 minutes
  Repellent efficiency (%) per time (minutes): 0%
2% (0.05 mg/cm^3), 210 minutes
  Repellent efficiency (%) per time (minutes): 0%
2% (0.05 mg/cm^3), 240 minutes
  Repellent efficiency (%) per time (minutes): 0%
10% (0.25 mg/cm^3), 30 minutes
  Repellent efficiency (%) per time (minutes): 100%
10% (0.25 mg/cm^3), 60 minutes
  Repellent efficiency (%) per time (minutes): 100%
10% (0.25 mg/cm^3), 90 minutes
  Repellent efficiency (%) per time (minutes): 100%
[1]
  Repellent efficiency (%) per time (minutes): 100%
[2]
  Repellent efficiency (%) per time (minutes): 87.5%
[3]
  Repellent efficiency (%) per time (minutes): 81.3%
[4]
  Repellent efficiency (%) per time (minutes): 78.1%
[5]
  Repellent efficiency (%) per time (minutes): 71.9%
At the level of 0.25 mg/cm^3
  time for which repellent efficiency of 100% was shown: 120 min
[6]
  Effective repellency duration (minute) (mean ± standard deviation): 70 min and 70 ± 10.0 min
[7]
  Effective repellency duration (minute) (mean ± standard deviation): 218 min and 218 ± 10.8 min
